Test results reported in PubChem BioAssay AID1745844 (Carcinogenic Potency Database (CPDB), 2022).
Several values for one entry are separate records, joined by “and”; a condition that tells them apart may be missing. Equal entries are not always repeated. Activity calls are given as the source filed them. The rule behind the calls is not given here.

System: rodent lifetime carcinogenesis bioassay, tumor incidence TD50
Experiment: chronic cancer bioassays in animals – CPDB, compiled studies (AID 1745844)

Question: Which TD50 (rat, strain Fischer, females, in feed, site: any site (literature study), lesion: malignant tumor, dosed 75 weeks, study length 75 weeks) does the source give for `COc1cc2c(cc1N)oc1ccccc12` here?
Answer: The TD50 was 33.1 mg/kg/day.

Question: What about the TD50 (rat, strain Fischer, females, in feed, site: external auditory canal, lesion: squamous-cell carcinoma, dosed 75 weeks, study length 75 weeks) of the same compound?
Answer: Its TD50 is 43.9 mg/kg/day.

Question: And the TD50 (rat, strain Fischer, females, in feed, site: mammary gland, lesion: adenocarcinoma, dosed 75 weeks, study length 75 weeks)?
Answer: Its TD50 is 205 mg/kg/day.

Question: And the TD50 (rat, strain Fischer, females, in feed, site: urinary bladder, lesion: several types, types named in the paper, dosed 75 weeks, study length 75 weeks)?
Answer: Its TD50 is 25.7 mg/kg/day.

Question: What about the TD50 (rat, strain Fischer, females, in feed, site: urinary bladder, lesion: transitional-cell carcinoma, dosed 75 weeks, study length 75 weeks) of the same compound?
Answer: The TD50 was 43.9 mg/kg/day.

Question: And the TD50 (rat, strain Fischer, males, in feed, site: any site (literature study), lesion: malignant tumor, dosed 75 weeks, study length 75 weeks)?
Answer: Its TD50 is 78.2 mg/kg/day.

Question: And the TD50 (rat, strain Fischer, males, in feed, site: external auditory canal, lesion: squamous-cell carcinoma, dosed 75 weeks, study length 75 weeks)?
Answer: The TD50 was 78.2 mg/kg/day.

Question: And the TD50 (rat, strain Fischer, males, in feed, site: urinary bladder, lesion: several types, types named in the paper, dosed 75 weeks, study length 75 weeks)?
Answer: Its TD50 is 26.4 mg/kg/day.

Question: What about the TD50 (rat, strain Fischer, males, in feed, site: urinary bladder, lesion: transitional-cell carcinoma, dosed 75 weeks, study length 75 weeks) of the same compound?
Answer: The TD50 was 78.2 mg/kg/day.

Question: And the TD50 (rat, strain Sprague-Dawley, females, in feed, site: any site (literature study), lesion: malignant tumor, dosed 75 weeks, study length 75 weeks)?
Answer: Its TD50 is 25.7 mg/kg/day.

Question: What about the TD50 (rat, strain Sprague-Dawley, females, in feed, site: external auditory canal, lesion: squamous-cell carcinoma, dosed 75 weeks, study length 75 weeks) of the same compound?
Answer: Its TD50 is 61.9 mg/kg/day.

Question: What about the TD50 (rat, strain Sprague-Dawley, females, in feed, site: mammary gland, lesion: adenocarcinoma, dosed 75 weeks, study length 75 weeks) of the same compound?
Answer: The TD50 was 61.9 mg/kg/day.

Question: What about the TD50 (rat, strain Sprague-Dawley, females, in feed, site: urinary bladder, lesion: several types, types named in the paper, dosed 75 weeks, study length 75 weeks) of the same compound?
Answer: Its TD50 is 43.9 mg/kg/day.

Question: And the TD50 (rat, strain Sprague-Dawley, females, in feed, site: urinary bladder, lesion: transitional-cell carcinoma, dosed 75 weeks, study length 75 weeks)?
Answer: Its TD50 is 205 mg/kg/day.

Question: What about the TD50 (rat, strain Sprague-Dawley, males, in feed, site: any site (literature study), lesion: malignant tumor, dosed 75 weeks, study length 75 weeks) of the same compound?
Answer: The TD50 was 78.2 mg/kg/day.

Question: And the TD50 (rat, strain Sprague-Dawley, males, in feed, site: kidney, lesion: squamous-cell carcinoma, dosed 75 weeks, study length 75 weeks)?
Answer: Its TD50 is 164 mg/kg/day.

Question: What about the TD50 (rat, strain Sprague-Dawley, males, in feed, site: urinary bladder, lesion: transitional-cell papilloma, dosed 75 weeks, study length 75 weeks) of the same compound?
Answer: The TD50 was 164 mg/kg/day.

Question: What about the TD50 (rat, strain Wistar, females, in feed, site: any site (literature study), lesion: malignant tumor, dosed 75 weeks, study length 75 weeks) of the same compound?
Answer: Its TD50 is 43.9 mg/kg/day.

Question: And the TD50 (rat, strain Wistar, females, in feed, site: liver, lesion: cystadenoma, dosed 75 weeks, study length 75 weeks)?
Answer: Its TD50 is 205 mg/kg/day.

Question: What about the TD50 (rat, strain Wistar, females, in feed, site: mammary gland, lesion: adenocarcinoma, dosed 75 weeks, study length 75 weeks) of the same compound?
Answer: Its TD50 is 97.7 mg/kg/day.

Question: What about the TD50 (rat, strain Wistar, females, in feed, site: urinary bladder, lesion: several types, types named in the paper, dosed 75 weeks, study length 75 weeks) of the same compound?
Answer: Its TD50 is 43.9 mg/kg/day.

Question: What about the TD50 (rat, strain Wistar, females, in feed, site: urinary bladder, lesion: transitional-cell carcinoma, dosed 75 weeks, study length 75 weeks) of the same compound?
Answer: Its TD50 is 97.7 mg/kg/day.

Question: And the TD50 (rat, strain Wistar, males, in feed, site: any site (literature study), lesion: benign tumor, dosed 84 weeks, study length 84 weeks)?
Answer: Its TD50 is 53.3 mg/kg/day.

Question: What about the TD50 (rat, strain Wistar, males, in feed, site: any site (literature study), lesion: malignant tumor, dosed 75 weeks, study length 75 weeks) of the same compound?
Answer: Its TD50 is 26.4 mg/kg/day.

Question: What about the carcinogen call (rat, strain Wistar, males, in feed, site: any site (literature study), lesion: malignant tumor, dosed 84 weeks, study length 84 weeks) of the same compound?
Answer: The carcinogen call was “positive”.

Question: And the TD50 (rat, strain Wistar, males, in feed, site: external auditory canal, lesion: squamous-cell carcinoma, dosed 75 weeks, study length 75 weeks)?
Answer: Its TD50 is 78.2 mg/kg/day.

Question: What about the TD50 (rat, strain Wistar, males, in feed, site: kidney, lesion: squamous-cell carcinoma, dosed 75 weeks, study length 75 weeks) of the same compound?
Answer: Its TD50 is 164 mg/kg/day.

Question: What about the TD50 (rat, strain Wistar, males, in feed, site: urinary bladder, lesion: several types, types named in the paper, dosed 75 weeks, study length 75 weeks) of the same compound?
Answer: Its TD50 is 35.2 mg/kg/day.

Question: And the carcinogen call (rat, strain Wistar, males, in feed, site: urinary bladder, lesion: several types, types named in the paper, dosed 84 weeks, study length 84 weeks)?
Answer: Its carcinogen call is “positive”.

Question: And the TD50 (rat, strain Wistar, males, in feed, site: urinary bladder, lesion: transitional-cell carcinoma, dosed 75 weeks, study length 75 weeks)?
Answer: Its TD50 is 78.2 mg/kg/day.

Question: `Nc1ccc2oc3ccccc3c2c1` was tested. Which carcinogen call (mouse, strain (C57 x IF)F1, females, in feed, site: liver, lesion: several types, types named in the paper, dosed 52 weeks, study length 58 weeks) did it give?
Answer: The carcinogen call was “positive”.

Question: And the TD50 (mouse, strain (C57 x IF)F1, males, in feed, site: liver, lesion: malignant hepatoma, dosed 52 weeks, study length 67 weeks)?
Answer: Its TD50 is 8.67 mg/kg/day.

Question: And the TD50 (mouse, strain (C57 x IF)F1, males, in feed, site: liver, lesion: several types, types named in the paper, dosed 52 weeks, study length 67 weeks)?
Answer: Its TD50 is 5.73 mg/kg/day.

Question: And the TD50 (mouse, strain (C57 x IF)F1, males, in feed, site: urinary bladder, lesion: carcinoma, dosed 52 weeks, study length 67 weeks)?
Answer: The TD50 was 22.3 mg/kg/day.

Question: For `CC(C)n1c(/C=C/[C@H](O)C[C@H](O)CC(=O)O)c(-c2ccc(F)cc2)c2ccccc21`, which TD50 (rat, strain Charles River CD (Sprague-Dawley), females, by gavage, site: liver, lesion: hepatocellular adenoma, dosed 104 weeks, study length 104 weeks) is on record?
Answer: The TD50 was 2780 mg/kg/day.

Question: And the TD50 (rat, strain Charles River CD (Sprague-Dawley), females, by gavage, site: liver, lesion: hepatocellular carcinoma, dosed 104 weeks, study length 104 weeks)?
Answer: Its TD50 is 916 mg/kg/day.

Question: And the TD50 (rat, strain Charles River CD (Sprague-Dawley), females, by gavage, site: stomach, lesion: papilloma, dosed 104 weeks, study length 104 weeks)?
Answer: Its TD50 is 916 mg/kg/day.

Question: What about the TD50 (rat, strain Charles River CD (Sprague-Dawley), males, by gavage, site: stomach, lesion: papilloma, dosed 104 weeks, study length 104 weeks) of the same compound?
Answer: The TD50 was 610 mg/kg/day.

Question: And the TD50 (rat, strain Charles River CD (Sprague-Dawley), males, by gavage, site: stomach, lesion: squamous-cell carcinoma, dosed 104 weeks, study length 104 weeks)?
Answer: Its TD50 is 919 mg/kg/day.

Question: And the TD50 (rat, strain Charles River CD (Sprague-Dawley), males, by gavage, site: thyroid gland, lesion: follicular adenocarcinoma, dosed 104 weeks, study length 104 weeks)?
Answer: Its TD50 is 258 mg/kg/day.

Question: What about the TD50 (rat, strain Charles River CD (Sprague-Dawley), males, by gavage, site: thyroid gland, lesion: follicular-cell adenoma, dosed 104 weeks, study length 104 weeks) of the same compound?
Answer: Its TD50 is 125 mg/kg/day.

Question: How did the TD50 (rat, strain Fischer 344, males, in drinking water, site: pancreas, exocrine, lesion: acinar-cell adenoma, dosed 128 weeks, study length 128 weeks) turn out when `COC(=O)C1=CCCN(N=O)C1` was run?
Answer: Its TD50 is 7.95 mg/kg/day.

Question: `CCC(Br)(CC)C(=O)NC(N)=O` was tested. Which TD50 (mouse, strain B6C3F1, females, in feed, site: any site (literature study), lesion: several types, types named in the paper, dosed 78 weeks, study length 104 weeks) did it give?
Answer: Its TD50 is 5320 mg/kg/day.

Question: What about the TD50 (mouse, strain B6C3F1, females, in feed, site: liver, lesion: hepatocellular adenoma + hepatocellular carcinoma + neoplastic nodule, dosed 78 weeks, study length 104 weeks) of the same compound?
Answer: The TD50 was 1950 mg/kg/day.

Question: And the TD50 (mouse, strain B6C3F1, females, in feed, site: lung, lesion: alveolar/bronchiolar adenoma + alveolar/bronchiolar carcinoma, dosed 78 weeks, study length 104 weeks)?
Answer: Its TD50 is 553 mg/kg/day (inactive) and 553 mg/kg/day.

Question: What about the carcinogen call (mouse, strain B6C3F1, males, in feed, site: any site (literature study), lesion: several types, types named in the paper, dosed 78 weeks, study length 104 weeks) of the same compound?
Answer: The carcinogen call was “negative (inactive)”.

Question: And the TD50 (mouse, strain B6C3F1, males, in feed, site: liver, lesion: hepatocellular adenoma + hepatocellular carcinoma + neoplastic nodule, dosed 78 weeks, study length 104 weeks)?
Answer: The TD50 was 1580 mg/kg/day.

Question: What about the carcinogen call (rat, strain Fischer 344, females, in feed, site: any site (literature study), lesion: several types, types named in the paper, dosed 103 weeks, study length 104 weeks) of the same compound?
Answer: Its carcinogen call is “negative (inactive)”.

Question: What about the TD50 (rat, strain Fischer 344, males, in feed, site: any site (literature study), lesion: several types, types named in the paper, dosed 103 weeks, study length 104 weeks) of the same compound?
Answer: Its TD50 is 1030 mg/kg/day (inactive).

Question: How did the carcinogen call (rat, strain Sprague-Dawley, males, in feed, site: liver, lesion: one or several types, types not named, dosed 52 weeks, study length 52 weeks) turn out when `CCN(CC)c1ccc(N=Nc2cc[n+]([O-])cc2)cc1` was run?
Answer: Its carcinogen call is “positive”.
